# Measurements taken from article doi:10.1101/2025.06.02.657523v1 (biorxiv, 2025).
# Target: RSK4 (Homo sapiens, UniProt Q9UK32)
# Experiment: Kinase-Glo Plus luminescence kinase assay
# Assay type: biochemical
# Conditions: […] ATP, […] MgCl2, pH […] °C, […] min, […] DMSO
# Chain of RSK4 (Q9UK32 whole entry): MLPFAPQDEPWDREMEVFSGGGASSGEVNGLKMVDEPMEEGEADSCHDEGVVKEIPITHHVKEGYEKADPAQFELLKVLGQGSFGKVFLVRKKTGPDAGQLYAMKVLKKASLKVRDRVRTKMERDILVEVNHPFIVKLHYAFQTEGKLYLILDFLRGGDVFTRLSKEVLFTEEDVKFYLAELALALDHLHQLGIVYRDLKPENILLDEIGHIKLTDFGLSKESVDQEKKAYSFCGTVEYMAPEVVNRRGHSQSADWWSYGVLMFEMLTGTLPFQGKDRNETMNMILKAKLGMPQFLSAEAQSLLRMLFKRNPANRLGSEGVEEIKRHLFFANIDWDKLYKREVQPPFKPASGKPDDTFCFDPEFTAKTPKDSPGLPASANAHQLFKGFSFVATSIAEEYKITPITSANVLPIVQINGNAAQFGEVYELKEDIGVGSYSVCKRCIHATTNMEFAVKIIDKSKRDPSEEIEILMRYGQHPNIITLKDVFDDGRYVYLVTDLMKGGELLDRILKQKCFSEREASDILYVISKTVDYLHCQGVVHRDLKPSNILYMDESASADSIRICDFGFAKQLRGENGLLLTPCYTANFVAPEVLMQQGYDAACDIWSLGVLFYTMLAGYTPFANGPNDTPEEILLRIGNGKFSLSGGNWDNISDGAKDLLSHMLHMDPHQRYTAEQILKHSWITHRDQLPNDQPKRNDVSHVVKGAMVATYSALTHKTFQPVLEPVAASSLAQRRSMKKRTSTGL
row,IC50 [nM],SMILES
1,45.9 ± 3.11,"Cc1cc(=O)n(C2CCCCC2)c2nc(Nc3ccc4[nH]ccc4c3)ncc12 [R635, 2-((1H-indol-5-yl)amino)-8-cyclohexyl-5-methylpyrido[2,3-d]pyrimidin-7(8H)-one]"
2,86.3 ± 40.7,Cc1cc(=O)n(C2CCC(F)(F)C2)c2nc(Nc3ccc4c(c3)CC(=O)N4)ncc12 (centres unmarked) [R634]
